Experimental data as given in ChEMBL document CHEMBL3797052 (Eur J Med Chem, 2016).

Legend:
[1] = Antiproliferative activity against human IGROV1 cells assessed as growth inhibition after 48 hrs by sulforhodamine B assay; type: functional; conditions: IGROV-1, 48 h; for CC50: read-out: LC50 (the source's name)
[2] = test system: ACHN; test: Antiproliferative activity against human ACHN cells assessed as cell growth at 10^-4 M after 48 hrs by sulforhodamine B assay; type: functional; conditions: read-out: Activity
[3] = Antiproliferative activity against human IGROV1 cells assessed as cell growth at 10^-8 M after 48 hrs by sulforhodamine B assay; type: functional; conditions: IGROV-1, 48 h, read-out: Activity
[4] = Antiproliferative activity against human HL-60(TB) cells assessed as cell growth at 10^-4 M after 48 hrs by sulforhodamine B assay; type: functional; conditions: HL-60, 48 h, read-out: Activity
[5] = Antiproliferative activity against human PC3 cells assessed as cell growth at 10^-8 M after 48 hrs by sulforhodamine B assay; type: functional; conditions: PC-3, 48 h, read-out: Activity
[6] = Antiproliferative activity against human OVCAR3 cells assessed as growth inhibition after 48 hrs by sulforhodamine B assay; type: functional; conditions: OVCAR-3, 48 h
[7] = test system: SK-MEL-5; test: Antiproliferative activity against human SK-MEL-5 cells assessed as cell growth at 10^-4 M after 48 hrs by sulforhodamine B assay; type: functional; conditions: SK-MEL-5, 48 h, read-out: Activity
[8] = test system: Serine/threonine-protein kinase B-raf (Homo sapiens), P15056 [V600E]; test: Inhibition of BRAF V600E mutant (unknown origin) at 10 uM measured after 40 mins by scintillation counting
[9] = test system: U-251; test: Antiproliferative activity against human U251 cells assessed as cell growth at 10^-6 M after 48 hrs by sulforhodamine B assay; type: functional; conditions: U-251, 48 h, read-out: Activity
[10] = Antiproliferative activity against human TK10 cells assessed as cell growth at 10^-7 M after 48 hrs by sulforhodamine B assay; type: functional; conditions: TK-10, 48 h, read-out: Activity
[11] = test system: ACHN; test: Antiproliferative activity against human ACHN cells assessed as growth inhibition after 48 hrs by sulforhodamine B assay; type: functional
[12] = Antiproliferative activity against human DU145 cells assessed as cell growth at 10^-6 M after 48 hrs by sulforhodamine B assay; type: functional; conditions: DU-145, 48 h, read-out: Activity
[13] = test system: NCI-H23; test: Antiproliferative activity against human NCI-H23 cells assessed as cell growth at 10^-7 M after 48 hrs by sulforhodamine B assay; type: functional; conditions: NCI-H23, 48 h, read-out: Activity
[14] = test system: M14; test: Antiproliferative activity against human M14 cells assessed as cell growth at 10^-8 M after 48 hrs by sulforhodamine B assay; type: functional; conditions: M14, 48 h, read-out: Activity
[15] = test system: EKVX; test: Antiproliferative activity against human EKVX cells assessed as cell growth at 10^-8 M after 48 hrs by sulforhodamine B assay; type: functional; conditions: read-out: Activity
[16] = test system: SN12C; test: Antiproliferative activity against human SN12C cells assessed as cell growth at 10^-8 M after 48 hrs by sulforhodamine B assay; type: functional; conditions: read-out: Activity
[17] = Antiproliferative activity against human SNB75 cells assessed as cell growth at 10^-7 M after 48 hrs by sulforhodamine B assay; type: functional; conditions: SNB-75, 48 h, read-out: Activity
[18] = Antiproliferative activity against human SW620 cells assessed as growth inhibition after 48 hrs by sulforhodamine B assay; type: functional; conditions: SW-620, 48 h; for CC50: read-out: LC50 (the source's name)
[19] = Antiproliferative activity against human HL-60(TB) cells assessed as cell growth at 10^-6 M after 48 hrs by sulforhodamine B assay; type: functional; conditions: HL-60, 48 h, read-out: Activity
[20] = test system: NCI-H522; test: Antiproliferative activity against human NCI-H522 cells assessed as cell growth at 10^-4 M after 48 hrs by sulforhodamine B assay; type: functional; conditions: NCI-H522, 48 h, read-out: Activity
[21] = Antiproliferative activity against human LOXIMVI cells assessed as cell growth at 10^-7 M after 48 hrs by sulforhodamine B assay; type: functional; conditions: LOX IMVI, read-out: Activity
[22] = Antiproliferative activity against human LOXIMVI cells assessed as cell growth at 10^-6 M after 48 hrs by sulforhodamine B assay; type: functional; conditions: LOX IMVI, read-out: Activity
[23] = Antiproliferative activity against human BT549 cells assessed as growth inhibition after 48 hrs by sulforhodamine B assay; type: functional; conditions: BT-549, 48 h; for CC50: read-out: LC50 (the source's name)
[24] = Antiproliferative activity against human MOLT4 cells assessed as cell growth at 10^-6 M after 48 hrs by sulforhodamine B assay; type: functional; conditions: MOLT-4, 48 h, read-out: Activity
[25] = Antiproliferative activity against human PC3 cells assessed as cell growth at 10^-7 M after 48 hrs by sulforhodamine B assay; type: functional; conditions: PC-3, 48 h, read-out: Activity
[26] = test system: KM12; test: Antiproliferative activity against human KM12 cells assessed as cell growth at 10^-4 M after 48 hrs by sulforhodamine B assay; type: functional; conditions: KM12, 48 h, read-out: Activity
[27] = Antiproliferative activity against human HCC2998 cells assessed as cell growth at 10^-6 M after 48 hrs by sulforhodamine B assay; type: functional; conditions: HCC 2998, 48 h, read-out: Activity
[28] = Antiproliferative activity against human TK10 cells assessed as growth inhibition after 48 hrs by sulforhodamine B assay; type: functional; conditions: TK-10, 48 h; for CC50: read-out: LC50 (the source's name)
[29] = Antiproliferative activity against human HCT116 cells assessed as cell growth at 10^-6 M after 48 hrs by sulforhodamine B assay; type: functional; conditions: HCT-116, 48 h, read-out: Activity
[30] = test system: SK-MEL-28; test: Antiproliferative activity against human SK-MEL-28 cells assessed as cell growth at 10^-7 M after 48 hrs by sulforhodamine B assay; type: functional; conditions: SK-MEL-28, 48 h, read-out: Activity
[31] = Antiproliferative activity against human UACC257 cells assessed as growth inhibition after 48 hrs by sulforhodamine B assay; type: functional; conditions: UACC-257, 48 h; for CC50: read-out: LC50 (the source's name)
[32] = test system: A549; test: Antiproliferative activity against human A549/ATCC cells assessed as cell growth at 10^-6 M after 48 hrs by sulforhodamine B assay; type: functional; conditions: A549, 48 h, read-out: Activity
[33] = Antiproliferative activity against human Hs 578T cells assessed as growth inhibition after 48 hrs by sulforhodamine B assay; type: functional; conditions: for CC50: read-out: LC50 (the source's name)
[34] = Antiproliferative activity against human RXF393 cells assessed as cell growth at 10^-6 M after 48 hrs by sulforhodamine B assay; type: functional; conditions: RXF 393, 48 h, read-out: Activity
[35] = Antiproliferative activity against human OVCAR4 cells assessed as cell growth at 10^-6 M after 48 hrs by sulforhodamine B assay; type: functional; conditions: OVCAR-4, 48 h, read-out: Activity
[36] = Antiproliferative activity against human OVCAR8 cells assessed as cell growth at 10^-6 M after 48 hrs by sulforhodamine B assay; type: functional; conditions: OVCAR-8, 48 h, read-out: Activity

Sequence of Serine/threonine-protein kinase B-raf (Homo sapiens), P15056 [V600E] (P15056 whole entry V600E): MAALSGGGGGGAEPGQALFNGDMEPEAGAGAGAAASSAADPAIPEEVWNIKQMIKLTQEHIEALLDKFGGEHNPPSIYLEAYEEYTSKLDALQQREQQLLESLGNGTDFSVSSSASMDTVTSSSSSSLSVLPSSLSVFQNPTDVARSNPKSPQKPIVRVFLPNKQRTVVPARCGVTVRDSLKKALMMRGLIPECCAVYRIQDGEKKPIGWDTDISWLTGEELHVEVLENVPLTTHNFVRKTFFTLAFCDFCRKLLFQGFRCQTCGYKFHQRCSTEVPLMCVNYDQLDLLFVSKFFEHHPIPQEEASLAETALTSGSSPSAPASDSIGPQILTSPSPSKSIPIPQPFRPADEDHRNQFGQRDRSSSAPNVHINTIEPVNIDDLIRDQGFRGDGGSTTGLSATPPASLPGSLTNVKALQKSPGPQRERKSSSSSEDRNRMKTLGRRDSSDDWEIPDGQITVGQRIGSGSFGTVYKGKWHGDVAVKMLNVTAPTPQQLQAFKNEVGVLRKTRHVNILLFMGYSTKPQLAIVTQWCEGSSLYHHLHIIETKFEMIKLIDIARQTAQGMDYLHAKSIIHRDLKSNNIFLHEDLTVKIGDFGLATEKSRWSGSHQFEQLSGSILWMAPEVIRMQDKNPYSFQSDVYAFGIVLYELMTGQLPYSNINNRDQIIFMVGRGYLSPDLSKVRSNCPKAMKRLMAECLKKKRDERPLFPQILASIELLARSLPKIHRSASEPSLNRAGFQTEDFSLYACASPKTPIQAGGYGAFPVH

CNC(=O)c1cc(Oc2ccc3nc(NC(=O)Nc4ccc(Cl)c(Cl)c4)sc3c2)ccn1
GI50 [1]: 2.55 µM
TGI [1]: 6.75 µM
CC50 [1]: > 100 µM
growth at 100 µM [2]: -18%
growth at 0.01 µM [3]: 99%
growth at 100 µM [4]: 89%
growth at 0.01 µM [5]: 96%
GI50 [6]: 2.3 µM
LC50 [6]: > 100 µM
TGI [6]: 5.38 µM
growth at 100 µM [7]: -23%
inhibition [8]: 67.6%
growth at 1 µM [9]: 98%
growth at 0.1 µM [10]: 112%
GI50 [11]: 2.1 µM
LC50 [11]: > 100 µM
TGI [11]: 5.56 µM
growth at 1 µM [12]: 97%
growth at 0.1 µM [13]: 92%
growth at 0.01 µM [14]: 93%
growth at 0.01 µM [15]: 89%
growth at 0.01 µM [16]: 102%
growth at 0.1 µM [17]: 83%
GI50 [18]: 8.11 µM
TGI [18]: > 100 µM
CC50 [18]: > 100 µM
growth at 1 µM [19]: 105%
growth at 100 µM [20]: 23%
growth at 0.1 µM [21]: 93%
growth at 1 µM [22]: 95%
GI50 [23]: 4.88 µM
TGI [23]: > 100 µM
CC50 [23]: > 100 µM
growth at 1 µM [24]: 99%
growth at 0.1 µM [25]: 100%
growth at 100 µM [26]: 6%
growth at 1 µM [27]: 100%
GI50 [28]: 3.46 µM
TGI [28]: 9.26 µM
CC50 [28]: > 100 µM
growth at 1 µM [29]: 88%
growth at 0.1 µM [30]: 100%
GI50 [31]: 2.25 µM
CC50 [31]: > 100 µM
growth at 1 µM [32]: 93%
GI50 [33]: 2.77 µM
TGI [33]: 6.66 µM
CC50 [33]: > 100 µM
growth at 1 µM [34]: 94%
growth at 1 µM [35]: 104%
growth at 1 µM [36]: 103%

CNC(=O)c1cc(Oc2ccc3nc(NC(=O)Nc4cc(C(F)(F)F)cc(C(F)(F)F)c4)sc3c2)ccn1
GI50 [1]: 1.25 µM
TGI [1]: 3.16 µM
CC50 [1]: 8.01 µM
growth at 100 µM [2]: -80%
growth at 0.01 µM [3]: 103%
growth at 100 µM [4]: -59%
growth at 0.01 µM [5]: 101%
GI50 [6]: 1.03 µM
LC50 [6]: 5.04 µM
TGI [6]: 2.27 µM
growth at 100 µM [7]: -72%
inhibition [8]: 49.9%
growth at 1 µM [9]: 51%
growth at 0.1 µM [10]: 109%
GI50 [11]: 0.542 µM
LC50 [11]: 5.7 µM
TGI [11]: 1.98 µM
growth at 1 µM [12]: 63%
growth at 0.1 µM [13]: 95%
growth at 0.01 µM [14]: 91%
growth at 0.01 µM [15]: 81%
growth at 0.01 µM [16]: 99%
growth at 0.1 µM [17]: 82%
GI50 [18]: 1.56 µM
TGI [18]: 3.29 µM
CC50 [18]: 6.97 µM
growth at 1 µM [19]: 75%
growth at 100 µM [20]: -67%
growth at 0.1 µM [21]: 93%
growth at 1 µM [22]: 63%
GI50 [23]: 1.34 µM
TGI [23]: 3.07 µM
CC50 [23]: 7.05 µM
growth at 0.1 µM [25]: 99%
growth at 100 µM [26]: -61%
growth at 1 µM [27]: 66%
GI50 [28]: 1.67 µM
TGI [28]: 3.35 µM
CC50 [28]: 6.72 µM
growth at 1 µM [29]: 57%
growth at 0.1 µM [30]: 96%
GI50 [31]: 1.15 µM
TGI [31]: 2.62 µM
CC50 [31]: 5.95 µM
growth at 1 µM [32]: 68%
GI50 [33]: 1.65 µM
TGI [33]: 4.84 µM
CC50 [33]: > 100 µM
growth at 1 µM [34]: 63%
growth at 1 µM [35]: 49%
growth at 1 µM [36]: 70%
